Data published in patent EP0100051A1, “New derivatives of 1-alkylamine-(4(p-alkyloxy-benzamide)phenoxy)-2-propanol, having beta-sympatholytic activity, their salts, and production processes thereof” (A. Menarini S.a.S., priority 1982, dated 1984).

Key:
[1] = tested on: β -chronotropic effects (cardiac frequency increase), β .-inotropic effects (systolic ejection velocity increase), and ,β2 effects (diastolic pressure lowering); experiment: antagonism of the effects of isoprenaline in the anaesthetized and reserpenized rat after oral administration (in vivo); conditions: for inherent sympathicomimetic activity: cardiac frequency in the reserpenized animal at rest; for cardioselectivity: from the in vivo and in vitro results, β1 versus β2 effects of isoprenaline; for power gap between vivo and vitro: in vivo activity relative to in vitro activity
[2] = tested on: β chronotropic effects (cavy right atrium), β1 inotropic effects (cavy ventricle) and 2 effects (cavy trachea) of the isoprenaline; experiment: antagonism of the effects of isoprenaline on isolated tissues (in vitro); conditions: compared with the compounds of the invention
Excerpt: The beta-sympatholytic activity of the compounds under examination has been tested in vivo as antagonist to the β -chronotropic effects (cardiac frequency increase), β .-inotropic effects (systolic ejection velocity increase), and ,β2 effects (diastolic pressure lowering) of the isoprenaline upon the anaesthetized and reserpenized rat, after oral administration, and in vitro as antagonist to the β chronotropic effects (cavy right atrium), β1 inotropic effects (cavy ventricle) and 2 effects (cavy trachea) of the isoprenaline.

SMILES	inherent sympathicomimetic activity [1]	cardioselectivity [1]	power gap between vivo and vitro [1]	beta-sympatholytic activity in vitro [2]
CC(C)NCC(O)COc1ccc(NC(=O)c2ccc(Cl)cc2)cc1 (centres unmarked) [1 [4(-p--chlorobenzamide)phenoxy] -3-isopropylamine-2-propanol]	also present	also present	lack of a significant power gap between vivo and vitro	
CC(C)NCC(O)COc1ccc(NC(=O)c2ccccc2)cc1 (centres unmarked) [1-(4-benzamidephenoxy)-3-isopropylamine-2-propanol]	also present	also present	lack of a significant power gap between vivo and vitro	
CC(=O)Nc1ccc(OCC(O)CNC(C)C)cc1 (centres unmarked) [practolol]	also present	also present	lack of a significant power gap between vivo and vitro	
CC(C)NCC(O)COc1cccc2ccccc12 (centres unmarked) [propranolol]			relevant decrease of the in vivo activity	more active in vitro
